Measurements taken from patent US9233095B2, “Small molecule RNase inhibitors and methods of use” (University of Rochester, priority 2011, dated 2016).
pIC50: −log10 of the molar value. Converted amounts (≈) assume the structure as drawn.

Experiments:
S. aureus RnpA = target: T1, S. aureus RnpA (Staphylococcus aureus, UniProt P0A0H5); assay: gel-based RnpA-mediated spa mRNA degradation, inhibitory titration; type: biochemical; conditions: 1 pmol spa mRNA, 20 pmol RnpA, one hour at 37° C.; read-out: IC50 of RnpA-mediated RNA degradation
T1 construct: hexahistidine-tag (N); made in house; host or cells: E. coli BL21 (DE3)
Method: Specifically, members of the ActiProbe-25K and Natural Product libraries (29,940 compounds total; TimTec Inc.; Newark, Del.) were screened for small molecule inhibitors of S. aureus RnpA mediated total bacterial RNA degradation. All reactions (50 μl) were performed in 96-well format and contained 20 pmol RnpA, 200 ng S. aureus total RNA, and about 5 μM of each compound in 1× reaction buffer (2 mM NaCl, 2 mM MgCl2, 50 mM Tris-HCl, pH 6.0). Mixtures were incubated at 37° C. for 20 min at which time Quant-iT RiboGreen® (100 μl; Invitrogen) was added to quantify the amount of RNA substrate remaining. Percent enzyme inhibition was calculated as remaining substrate/starting substrate*100. For inhibitory titration assays, 1 pmol of spa mRNA was incubated with 20 pmol RnpA alone (positive control) or in the presence of increasing amounts (0, 25, 50, 100, 125, 150, 200, 250, and 500 μM) RNP1000 for one hour at 37° C. Following this, 20 μl of each reaction mixture were subjected to electrophoresis in a 1.2% formaldehyde-containing agarose gel and visualized by ethidium bromide staining.

S. aureus (MSSA) = assay: CLSI broth microdilution MIC; type: cell-based, Staphylococcus aureus; conditions: Staphylococcus aureus, MSSA; strain UAMS-1
Source text: In some examples, compounds can be further assayed using the Mueller Hinton (MH) broth antibacterial assay as specified by the Clinical and Laboratory Standards Institute MIC broth microdilution protocol (see Methods for Dilution Antimicrobial Susceptibility Tests for Bacteria That Grow Aerobically; Approved Standard, In The Clinical and Laboratory Standards Institute (CLSI, formerly NCCLS), 7th ed., January 2006, 26 (2), M7-A7; see also Performance Standards for Antimicrobial Susceptibility Testing; Eighteenth Informational Supplement, In The Clinical and Laboratory Standards Institute (CLSI, formerly NCCLS), January 2008, 28 (1), M100-S18).
With the exception of RN4220-derivatives, in vitro activities of RNPA1000 against bacteria were determined by the broth microdilution method according to the Clinical and Laboratory Standards Institute (CLSI) guidelines using cation adjusted Mueller-Hinton broth or MH broth supplemented with 5% lysed horse blood (for testing Streptotococcus spp.). Microtiter plates containing serial dilutions of RNPA1000 (0, 4, 8, 16, 32, 64, and 128 μg/ml) were inoculated with 10^5 colony forming units (CFU)/ml and incubated for 18 hr at 37° C. […] The MIC value for each S. aureus strain was determined to be the median score of replicate measurements (n=5). Wells containing concentrations of RNPA1000≧MIC were plated for minimal bactericidal measurement. Where possible, experiments with VRSA strains were performed in a laminar flow hood to minimize potential for equipment contamination. For RN4220 cells containing plasmid vector (pCN51), RnpA overproducing plasmid (pRNPA-S) or RnpA underproducing plasmid (pRNPA-A.S.) in vitro antimicrobial activity of RNPA1000 was performed by the microdilution method as described above, except that cells were grown in Tryptic Soy Broth medium supplemented with 2.5 μM CdCl2 and 0, 1, 2, 4, 8, 16, 32, 64, or 128 μg/ml RNPA1000. Time-kill assays were also performed to monitor the antimicrobial properties of RNPA1000 for S. aureus strain UAMS-1 in the absence and presence of 0.25, 0.5, 2, and 4 times the strain's MIC for oxacillin (1 μg/ml), rifampicin (0.5 μg/ml), vancomycin (2 μg/ml), or daptomycin (1 μg/ml). The indicated amount of RNPA1000 and/or commercial antibiotic were added to mid-exponential phase (2×10^8 cfu/ml) S. aureus strain UAMS-1 cells and incubated at 37° C. Aliquots were removed at 0, 2, 4, 8, and 24 hr post-antimicrobial challenge, serial diluted, and plated to enumerate resulting cfu/ml. All time-kill assays were repeated at least 3 times.

Structure (SMILES): Cc1cc(/C=C(/C#N)C(=O)Nc2cccc(Br)c2)c(C)n1-c1ccc(C(=O)O)cc1 [RNPA1000]
- pIC50 (S. aureus RnpA): 3.90 to 4.00
- MIC (S. aureus (MSSA)): 26 µg/mL (≈ 56 µM)
